Each structure is given as a SMILES string. pIC50: −log10 of the molar value.

For one assay, the target named is T1, renin (Homo sapiens, UniProt P00797).
T1 sequence (P00797 67-406): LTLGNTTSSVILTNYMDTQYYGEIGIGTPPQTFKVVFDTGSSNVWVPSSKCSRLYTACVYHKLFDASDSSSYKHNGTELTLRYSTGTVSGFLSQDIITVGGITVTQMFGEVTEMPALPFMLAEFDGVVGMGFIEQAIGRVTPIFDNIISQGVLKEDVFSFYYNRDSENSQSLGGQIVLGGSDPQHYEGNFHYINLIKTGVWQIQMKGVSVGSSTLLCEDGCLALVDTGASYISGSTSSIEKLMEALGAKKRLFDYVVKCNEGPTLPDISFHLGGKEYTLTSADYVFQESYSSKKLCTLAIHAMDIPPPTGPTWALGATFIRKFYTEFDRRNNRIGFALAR
Nature of the assay: in vitro renin inhibitory activity, radioimmunoassay for angiotensin I. In kind it is biochemical. To be noted: @ 1 × 10^-8 (molar); 2 hours at 37°. Here is the method: The effectiveness of the aforementioned compounds is determined by a test for in vitro renin inhibitory activity. This activity is determined by a standard radioimmunoassay for angiotensin I. ln this assay the enzyme, renin, incubated for 2 hours at 37° in the presence of a substrate, angiotensinogen, generates the product, angiotensin I. Test compounds are added to the incubation mixture. Relative activity is reported as the percent inhibition at the specified molar concentration or as the IC50, which is the molar concentration of test compound causing a 50% inhibition of the renin activity.
In the case of `CC(C)C[C@H](O)[C@H](O)[C@H](CC1CCCCC1)NC(=O)CC1OC1[C@H](Cc1ccccc1)NC(=O)OC(C)(C)C` (stereo partly drawn), the “In Vitro Activity, percent inhibition” value is 21%.
On to `CC(C)C[C@H](O)[C@H](O)[C@H](CC1CCCCC1)NC(=O)CCC(=O)[C@H](Cc1ccccc1)NC(=O)OCc1ccccc1` [ZPHE.psi.[COCH2 ]GLYCAD, Z-PHE.PSI.[COCH2]GLY-CAD], for which the “In Vitro Activity, percent inhibition” value is recorded as 1%.

Staying with this assay, now noted: @ 3 × 10^-8 (molar); 2 hours at 37°.
Regarding `CC(C)C[C@H](O)[C@H](O)[C@H](CC1CCCCC1)NC(=O)C/C=C/[C@H](Cc1ccccc1)NC(=O)OC(C)(C)C` [BOCPHE.psi.[CHCH]GLYCAD, BOC-PHE.PSI.[E-CH=CH]GLY-CAD], the “In Vitro Activity, percent inhibition” value was found to be 1%.

The same assay, now with this note: @ 10^-6 (molar; also 1 × 10^-6); 2 hours at 37°.
For the compound `CC(C)C[C@H](O)[C@H](O)[C@H](CC1CCCCC1)NC(=O)C(N)CC(O)[C@H](Cc1ccccc1)NC(=O)OC(C)(C)C` (single isomer, unassigned) [drawing 42, BOC-PHE.PSI.[CHOHCH2 ]CH(NH2)CO-CAD], the “In Vitro Activity, percent inhibition” value worked out at 45%.
On to `CC(C)C[C@H](O)[C@H](O)[C@H](CC1CCCCC1)NC(=O)C(N)CC(O)[C@H](Cc1ccccc1)NC(=O)OC(C)(C)C` (single isomer, unassigned) [drawing 43, BOC-PHE.PSI.[CHOHCH2 ]CH(NH2)CO-CAD], for which the “In Vitro Activity, percent inhibition” value was 26%.
Same read-out and setting: the figure for `CC(C)C[C@H](O)[C@H](O)[C@H](CC1CCCCC1)NC(=O)CCC(O)[C@@H](N)Cc1ccccc1` (stereo partly drawn) [PHE.psi.[CHOHCH2 ]GLYCAD] is 28%.

Staying with this assay, now noted: renin incubated 2 hours at 37° with angiotensinogen; values marked * = IC50; read-out: In Vitro Activity, IC50 (molar concentration causing a 50% inhibition of the renin activity).
As to `CC(C)C[C@H](O)[C@H](O)[C@H](CC1CCCCC1)NC(=O)CCC(O)[C@H](Cc1ccccc1)NC(=O)OC(C)(C)C` (mixture of isomers) [BOCPHE.psi.[CHOHCH2 ]GLYCAD (Mixture of Diastereomers), BOC-PHE.PSI.[CHOHCH2 ]GLY-CAD (Mixture of Diastereomers)], the pIC50 is 7.52.
In the case of `CC(C)C[C@H](O)[C@H](O)[C@H](CC1CCCCC1)NC(=O)CCC(O)[C@H](Cc1ccccc1)NC(=O)OCc1ccccc1` (mixture of isomers) [ZPHE.psi.[CHOHCH2 ]GLYCAD (Mixture of Diastereomers), Z-PHE.PSI.[CHOHCH2 ]GLY-CAD (Mixture of Diastereomers)], the pIC50 is 6.62.
Same read-out and setting: next, `CC(C)C[C@H](O)[C@H](O)[C@H](CC1CCCCC1)NC(=O)CCC(O)[C@H](Cc1ccccc1)NC(=O)OC(C)(C)C` (single isomer, unassigned) [BOCPHE.psi.[CHOHCH2 ]GLYCAD (Slow Eluting Diastereomer), BOC-PHE.PSI.[CHOHCH2 ]GLY-CAD (Slow Isomer)]: 7.82.
The same measure, in the same setting: the figure for `CC(C)C[C@H](O)[C@H](O)[C@H](CC1CCCCC1)NC(=O)CCC(O)[C@H](Cc1ccccc1)NS(=O)(=O)N1CCOCC1` (single isomer, unassigned) [SMOPHE.psi.[CHOHCH2 ]GLYCAD (Isomer A), SMO-PHE.PSI.[CHOHCH2 ]GLY-CAD (Isomer A)] is 8.64; for `CC(C)C[C@H](O)[C@H](O)[C@H](CC1CCCCC1)NC(=O)CCC(O)[C@H](Cc1ccccc1)NS(=O)(=O)N1CCOCC1` (single isomer, unassigned) [SMOPHE.psi.[CHOHCH2 ]GLYCAD (Isomer B), SMO-PHE.PSI.[CHOHCH2 ]GLY-CAD (Isomer B)] it is 7.77; for `CC(C)C[C@H](O)[C@H](O)[C@H](CC1CCCCC1)NC(=O)CCC(O)[C@H](Cc1ccccc1)NC(=O)OCc1ccccc1` (single isomer, unassigned) [ZPHE.psi.[CHOHCH2 ]GLYCAD (Slow Eluting Diastereomer), Z-PHE.PSI.[CHOHCH2 ]GLY-CAD (Slow Isomer)] it is 6.70.
For `CC(C)C[C@H](O)[C@H](O)[C@H](CC1CCCCC1)NC(=O)CNC[C@H](Cc1ccccc1)NS(=O)(=O)N1CCOCC1` [SMOPHE.psi.[CH2 NH]GLYCAD, SMO-PHE.PSI.[CH2 NH]GLY-CAD], the pIC50 was 5.59.
Same read-out and setting: next, `CC(C)C[C@H](O)[C@H](O)[C@H](CC1CCCCC1)NC(=O)C=CC(O)[C@H](Cc1ccccc1)NS(=O)(=O)N1CCOCC1` (stereo partly drawn) [SMOPHE.psi.[CHOHCHCHCO]CAD, SMO-PHE.PSI.[CHOHCH=CHCO]CAD]: 7.60; `CC(C)C[C@H](O)[C@H](O)[C@H](CC1CCCCC1)NC(=O)CCC(=O)[C@H](Cc1ccccc1)NS(=O)(=O)N1CCOCC1` [SMOPHE.psi.[COCH2 ]GLYCAD, SMO-PHE.PSI.[COCH2]GLY-CAD]: 7.06.

(Values after patent US5114937A, “Renin inhibiting nonpeptides” (Warner-Lambert Company, priority 1989, dated 1992).)
